Data as given in ChEMBL document CHEMBL1201862, “PubChem BioAssay data set” (2004).
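How tested: cells in 96-well plates exposed to compound for 48 hours at five concentrations. GI50 marks 50% less growth.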 Calls of active or inactive are those of the source. Cut-off read from the data, not from the text of the source: active = GI50 up to about 1.1 µM and inactive = higher.

Key:
Assay in all cases: growth of human tumour cells (NCI), 48 h
M19-MEL = tested on: M19-MEL
SF-539 = tested on: SF-539
DLD-1 = tested on: DLD-1
OVCAR-3 = tested on: OVCAR-3
XF498 = tested on: XF498
CCRF-CEM = tested on: CCRF-CEM
UO-31 = tested on: UO-31
A498 = tested on: A498
TK-10 = tested on: TK-10
U-251 = tested on: U-251
KM-20L2 = tested on: KM-20L2
RPMI-8226 = tested on: RPMI-8226
SF-295 = tested on: SF-295
NCI-H522 = tested on: NCI-H522
NCI-H226 = tested on: NCI-H226
EKVX = tested on: EKVX
SK-OV-3 = tested on: SK-OV-3
A549 = tested on: A549
M14 = tested on: M14
UACC-62 = tested on: UACC-62
Malme-3M = tested on: Malme-3M
HOP-62 = tested on: HOP-62
HCC 2998 = tested on: HCC 2998
SW-620 = tested on: SW-620
LXFL 529 = tested on: LXFL 529
HCT-15 = tested on: HCT-15
COLO 205 = tested on: COLO 205
UACC-257 = tested on: UACC-257
ACHN = tested on: ACHN
DMS-273 = tested on: DMS-273
786-0 = tested on: 786-0
SF-268 = tested on: SF-268
SNB-78 = tested on: SNB-78
CAKI-1 = tested on: CAKI-1
IGROV-1 = tested on: IGROV-1
HT-29 = tested on: HT-29
OVCAR-8 = tested on: OVCAR-8
K562 = tested on: K562
KM12 = tested on: KM12
SN12C = tested on: SN12C
SK-MEL-5 = tested on: SK-MEL-5
LOX IMVI = tested on: LOX IMVI
OVCAR-5 = tested on: OVCAR-5
MOLT-4 = tested on: MOLT-4
RXF 393 = tested on: RXF 393
SNB-75 = tested on: SNB-75
SNB-19 = tested on: SNB-19
HCT-116 = tested on: HCT-116
DMS-114 = tested on: DMS-114
SK-MEL-2 = tested on: SK-MEL-2
NCI-H460 = tested on: NCI-H460
NCI-H23 = tested on: NCI-H23
OVCAR-4 = tested on: OVCAR-4
SK-MEL-28 = tested on: SK-MEL-28
HOP-92 = tested on: HOP-92
HL-60 = tested on: HL-60

`CCO/N=C(/N)c1ncn(Cc2ccccc2)c1NCC(OCC)OCC` was tested, and the GI50 (M19-MEL) was > 100 µM (inactive), the GI50 (SF-539) was > 100 µM (inactive) and the GI50 (DLD-1) was > 100 µM (inactive). The GI50 (OVCAR-3) was > 100 µM (inactive), the GI50 (XF498) was 29.7 µM (inactive) and the GI50 (CCRF-CEM) was > 100 µM (inactive). The GI50 (UO-31) was > 100 µM (inactive), the GI50 (A498) was > 100 µM (inactive) and the GI50 (TK-10) was > 100 µM (inactive). The GI50 (U-251) was > 100 µM (inactive), the GI50 (KM-20L2) was > 100 µM (inactive) and the GI50 (RPMI-8226) was > 100 µM (inactive). The GI50 (SF-295) was > 100 µM (inactive), the GI50 (NCI-H522) was > 100 µM (inactive) and the GI50 (NCI-H226) was > 100 µM (inactive). The GI50 (EKVX) was > 100 µM (inactive), the GI50 (SK-OV-3) was > 100 µM (inactive) and the GI50 (A549) was > 100 µM (inactive). The GI50 (M14) was > 100 µM (inactive), the GI50 (UACC-62) was > 100 µM (inactive) and the GI50 (Malme-3M) was > 100 µM (inactive). The GI50 (HOP-62) was > 100 µM (inactive), the GI50 (HCC 2998) was > 100 µM (inactive) and the GI50 (SW-620) was > 100 µM (inactive). For the same compound, the GI50 (LXFL 529) was > 100 µM (inactive), the GI50 (HCT-15) was > 100 µM and the GI50 (COLO 205) was > 100 µM (inactive). The GI50 (UACC-257) was > 100 µM (inactive), the GI50 (ACHN) was > 100 µM (inactive) and the GI50 (DMS-273) was > 100 µM (inactive). For the same compound, the GI50 (786-0) was > 100 µM (inactive), the GI50 (SF-268) was > 100 µM (inactive) and the GI50 (SNB-78) was > 100 µM (inactive). The GI50 (CAKI-1) was > 100 µM (inactive), the GI50 (IGROV-1) was > 100 µM (inactive) and the GI50 (HT-29) was > 100 µM (inactive). For the same compound, the GI50 (OVCAR-8) was > 100 µM (inactive), the GI50 (K562) was > 100 µM (inactive) and the GI50 (KM12) was > 100 µM (inactive). The GI50 (SN12C) was > 100 µM (inactive), the GI50 (SK-MEL-5) was > 100 µM (inactive) and the GI50 (LOX IMVI) was > 100 µM (inactive). For the same compound, the GI50 (OVCAR-5) was > 100 µM (inactive), the GI50 (MOLT-4) was > 100 µM (inactive) and the GI50 (RXF 393) was 29.2 µM (inactive). For the same compound, the GI50 (SNB-75) was > 100 µM (inactive), the GI50 (SNB-19) was > 100 µM (inactive) and the GI50 (HCT-116) was > 100 µM (inactive). For the same compound, the GI50 (DMS-114) was > 100 µM (inactive), the GI50 (SK-MEL-2) was > 100 µM (inactive) and the GI50 (NCI-H460) was > 100 µM (inactive).

In the case of `O=C1NC(=O)C2C(=O)NC(=O)C1C2Cc1ccco1` (stereo not drawn), the GI50 (M19-MEL) was > 100 µM (inactive), the GI50 (SF-539) was > 100 µM (inactive) and the GI50 (DLD-1) was > 100 µM (inactive). For the same compound, the GI50 (OVCAR-3) was > 100 µM (inactive), the GI50 (XF498) was > 100 µM (inactive) and the GI50 (CCRF-CEM) was > 100 µM (inactive). For the same compound, the GI50 (UO-31) was > 100 µM (inactive), the GI50 (A498) was > 100 µM (inactive) and the GI50 (TK-10) was > 100 µM (inactive). For the same compound, the GI50 (NCI-H23) was > 100 µM (inactive), the GI50 (KM-20L2) was > 100 µM (inactive) and the GI50 (RPMI-8226) was > 100 µM (inactive). The GI50 (SF-295) was > 100 µM (inactive), the GI50 (NCI-H522) was > 100 µM (inactive) and the GI50 (NCI-H226) was > 100 µM (inactive). For the same compound, the GI50 (EKVX) was > 100 µM (inactive), the GI50 (SK-OV-3) was > 100 µM (inactive) and the GI50 (A549) was > 100 µM (inactive). For the same compound, the GI50 (M14) was > 100 µM (inactive), the GI50 (UACC-62) was > 100 µM (inactive) and the GI50 (Malme-3M) was > 100 µM (inactive). The GI50 (HCC 2998) was > 100 µM (inactive), the GI50 (SW-620) was > 100 µM (inactive) and the GI50 (OVCAR-4) was > 100 µM (inactive). For the same compound, the GI50 (SK-MEL-28) was > 100 µM (inactive), the GI50 (HCT-15) was > 100 µM and the GI50 (HOP-92) was > 100 µM (inactive). For the same compound, the GI50 (COLO 205) was > 100 µM (inactive), the GI50 (UACC-257) was > 100 µM (inactive) and the GI50 (ACHN) was > 100 µM (inactive). For the same compound, the GI50 (DMS-273) was > 100 µM (inactive), the GI50 (786-0) was > 100 µM (inactive) and the GI50 (SF-268) was > 100 µM (inactive). The GI50 (SNB-78) was > 100 µM (inactive), the GI50 (CAKI-1) was > 100 µM (inactive) and the GI50 (IGROV-1) was > 100 µM (inactive). The GI50 (HT-29) was > 100 µM (inactive), the GI50 (OVCAR-8) was > 100 µM (inactive) and the GI50 (K562) was > 100 µM (inactive). For the same compound, the GI50 (KM12) was > 100 µM (inactive), the GI50 (SN12C) was > 100 µM (inactive) and the GI50 (HL-60) was > 100 µM (inactive). The GI50 (SK-MEL-5) was > 100 µM (inactive), the GI50 (LOX IMVI) was > 100 µM (inactive) and the GI50 (OVCAR-5) was > 100 µM (inactive). The GI50 (MOLT-4) was > 100 µM (inactive), the GI50 (RXF 393) was > 100 µM (inactive) and the GI50 (SNB-75) was > 100 µM (inactive). The GI50 (SNB-19) was > 100 µM (inactive), the GI50 (DMS-114) was > 100 µM (inactive) and the GI50 (SK-MEL-2) was > 100 µM (inactive). The GI50 (NCI-H460) was > 100 µM (inactive).
